US20210299079A1, “MONOMETHYL FUMARATE-CARRIER CONJUGATES AND METHODS OF THEIR USE” (Flagship Pioneering Innovations V, Inc., priority 2018, published 2021)
Counter-ions that a name gives are not always drawn.

Assays:
[1] = Stability of conjugates in Simulated Gastric Fluid (SGF); assay type: in vitro ADME; conditions: SGF pH 1.6 with pepsin, 37° C., 1 μM compound
Method: Assay 1. Stability of conjugates in Simulated Gastric Fluid (SGF). This assay was used to assess the stability of a conjugate in a stomach.
Medium was prepared by dissolving 2 g of sodium chloride in 0.6 L in ultrapure water (MilliQ®, Millipore Sigma, Darmstadt, Germany). The pH was adjusted to 1.6 with 1N hydrochloric acid, and the volume was then adjusted to 1 L with purified water.
60 mg FaSSIF powder (Biorelevant™, London, UK) were dissolved in 500 mL buffer (above). Pepsin was added (0.1 mg/mL) (Millipore Sigma, Darmstadt, Germany), and the solution was stirred. The resulting SGF media were used fresh for each experiment.
(§1) Test compounds were dissolved in DMSO stock to 1 mM. An aliquot of the DMSO stock solution was removed and diluted in the SGF Media in 15 mL falcon tubes to generate a total compound concentration of 1 μM. A 1 mL aliquot was immediately removed and diluted once with 1 volume of acetonitrile for TO timepoint. The mixture was sealed and mixed at 37° C. in an incubator. Aliquots (1 mL) were removed at regular intervals and immediately quenched by the addition of 1 volume of acetonitrile. The resulting samples were analyzed by LC/MS to determine degradation rates in SGF.

[2] = Stability of conjugates in Simulated Intestinal Fluid (SIF); assay type: in vitro ADME; conditions: SIF pH 6.7 with pancreatin, 37° C., 1 μM compound
Method: Assay 2. Stability of conjugates in Simulated Intestinal Fluid (SIF). This assay was used to assess the stability of a conjugate in a small intestine.
Phosphate buffer was prepared by dissolving 0.42 g of sodium hydroxide pellets and 3.95 g of monobasic sodium phosphate monohydrate and 6.19 g of sodium chloride in ultrapure water (MilliQ®, Millipore Sigma, Darmstadt, Germany). The pH was adjusted to 6.7 using aq. HCl and aq. NaOH, as necessary, and the solution was diluted with ultrapure water to produce 1 L of the pH 6.7 buffer.
112 mg FaSSIF powder (Biorelevant™, London, UK) was dissolved in 50 mL of the pH 6.7 buffer. 2 to 3 mL of the resulting solution were then added to 500 mg pancreatin (Millipore Sigma, Darmstadt, Germany). The resulting mixture was agitated by finger tapping the vessel containing the mixture until milky suspension formed. At this time, the remainder of the 50 mL FaSSiF/pH 6.7 buffer solution was added. The resulting suspension was flipped upside down 10 times to produce SIF, which was used fresh.
as §1, with “SIF media” for “SGF Media”, “produce” for “generate”, “mixture with a tested” for “total”, “agitated” for “mixed”, “rates” for “rates in SGF.”

[3] = system: naïve CD4+ T cells; test: Human Regulatory T Cell Differentiation Assay; assay type: cell-based; conditions: 6 days; for Cell viability % DMSO: viability dye; for activity at 3000 µM: IL-2, 3 mM; for activity at 100 µM: IL-2, 100 μM
Method: Peripheral blood mononuclear cells (PBMCs) from whole blood donated by health volunteers were separated by Ficoll-Paque gradient centrifugation and naïve CD4^+ T cells were subsequently isolated using magnet beads (EasySep™ Human Naïve CD4^+ T Cell Isolation Kit, Cambridge, Mass.). For regulatory T cell (Treg) differentiation assay, naïve CD4^+ T cells were cultured (1-10×10^4 cells) in CTS OpTmizer medium for 6 days and stimulated with 5 ng/ml TGF-β, 100 U/ml IL-2, and ImmunoCult™ Human […] T Cell Activator; Stemcell #10990) with/without our Compounds. Cell viability was determined using a viability dye (eBioscience Fixable Viability Dye eFluor 780: ThermoFisher 65-0865-14) at 1:500 dilution. The cells were gated for Treg, defined as Live, CD11c^−, CD14^−, CD19^−, CD8^−, CD4^+, CD3^+, CD25^+, FOXP3^+. Percent (%) Tregs were calculated as percentage of CD4^+, CD25^+, FOXP3^+ cells over total CD4^+ T cells. Statistical analysis was performed with GraphPad Prism Software Using One-Way ANOVA.

[4] = Homo sapiens, 144 h, TGF-β, read-out: Treg induction % DMSO

SMILES	Assay 1 (SGF) (% Remaining @ 1 hour) [1]	Assay 2 (SIF) (% @ Remaining 4 hours) [2]	also measured
CCC(=O)O[C@H]1[C@H](OC(=O)/C=C/C(=O)OC)OC[C@@H](OC(=O)CC)[C@H]1OC(=O)CC [Compound 6, Methyl ((2S,3R,4R,5R)-3,4,5-tris(propionyloxy)tetrahydro-2H-pyran-2-yl) fumarate]	C (C: >75% of the tested compound remaining)	A (A: <25% of the tested compound remaining)	–
CCC(=O)O[C@H]1[C@H](OC(=O)CC)[C@@H](OC(=O)/C=C/C(=O)OC)O[C@@H](C)[C@H]1OC(=O)CC [Compound 21, Methyl ((2R,3S,4R,5R,6S)-6-methyl-3,4,5-tris(propionyloxy)tetrahydro-2H-pyran-2-yl) fumarate]	C (C: >75% of the tested compound remaining)	B (B: 25-75% of the tested compound remaining)	–
CCC(=O)O[C@@H]1O[C@H](COC(=O)/C=C/C(=O)OC)[C@@H](OC(=O)CC)[C@H](OC(=O)CC)[C@H]1OC(=O)CC [Compound 22, Methyl (((2R,3R,4S,5R,6S)-3,4,5,6-tetrakis(propionyloxy)tetrahydro-2H-pyran-2-yl)methyl) fumarate]	C (C: >75% of the tested compound remaining)	A (A: <25% of the tested compound remaining)	–
CCC(=O)O[C@@H]1[C@@H](OC(=O)CC)[C@@H](OC(=O)/C=C/C(=O)OC)O[C@H](C(=O)O)[C@H]1OC(=O)CC [Compound 26, (2S,3S,4S,5R,6R)-6-(((E)-4-methoxy-4-oxobut-2-enoyl)oxy)-3,4,5-tris(propionyloxy)tetrahydro-2H-pyran-2-carboxylic Acid]	C (C: >75% of the tested compound remaining)	A (A: <25% of the tested compound remaining)	–
CCCC(=O)O[C@H]1[C@@H](OC(=O)CCC)[C@@H](CO)O[C@@H](OC(=O)/C=C/C(=O)OC)[C@@H]1OC(=O)CCC [Compound 44, 1-methyl (2S,3R,4S,5S,6R)-3,4,5-tris(butanoyloxy)-6-(hydroxymethyl)oxan-2-yl (2E)-but-2-enedioate]	C (C: >75% of the tested compound remaining)	A (A: <25% of the tested compound remaining)	–
CCCC(=O)O[C@H]1[C@@H](OC(=O)CCC)[C@@H](CO)O[C@H](OC(=O)/C=C/C(=O)OC)[C@@H]1OC(=O)CCC [Compound 45, 1-methyl (2R,3R,4S,5S,6R)-3,4,5-tris(butanoyloxy)-6-(hydroxymethyl)oxan-2-yl (2E)-but-2-enedioate]	C (C: >75% of the tested compound remaining)	A (A: <25% of the tested compound remaining)	–
CCC(=O)OC[C@H]1O[C@@H](OC(=O)/C=C/C(=O)OC)[C@H](OC(=O)CC)[C@@H](OC(=O)CC)[C@H]1O [Compound 47, (2S,3R,4S,5S,6R)-5-hydroxy-3,4-bis(propanoyloxy)-6-[(propanoyloxy)methyl]oxan-2-yl 1-methyl (2E)-but-2-enedioate]	C (C: >75% of the tested compound remaining)	A (A: <25% of the tested compound remaining)	–
CCC(=O)O[C@H]1[C@@H](OC(=O)CC)[C@@H](CO)O[C@H](OC(=O)/C=C/C(=O)OC)[C@@H]1OC(=O)CC [Compound 48, (2R,3R,4S,5S,6R)-6-(hydroxymethyl)-3,4,5-tris(propanoyloxy)oxan-2-yl 1-methyl (2E)-but-2-enedioate]	C (C: >75% of the tested compound remaining)	A (A: <25% of the tested compound remaining)	–
CCC(=O)OC[C@H]1O[C@H](OC(=O)/C=C/C(=O)OC)[C@H](OC(=O)CC)[C@@H](OC(=O)CC)[C@H]1O [Compound 49, (2R,3R,4S,5S,6R)-5-hydroxy-3,4-bis(propanoyloxy)-6-[(propanoyloxy)methyl]oxan-2-yl 1-methyl (2E)-but-2-enedioate]	C (C: >75% of the tested compound remaining)	A (A: <25% of the tested compound remaining)	–
CCC(=O)O[C@H]1O[C@H](COC(=O)/C=C/C(=O)OC)[C@@H](OC(=O)CC)[C@H](OC(=O)CC)[C@H]1OC(=O)CC [Compound 50, 1-methyl 4-[(2R,3R,4S,5R,6R)-3,4,5,6-tetrakis(propanoyloxy)oxan-2-yl]methyl (2E)-but-2-enedioate]	C (C: >75% of the tested compound remaining)	A (A: <25% of the tested compound remaining)	–
CCC(=O)OC[C@H]1O[C@@H](OC(=O)CC)[C@H](OC(=O)CC)[C@@H](OC(=O)CC)[C@H]1OC(=O)/C=C/C(=O)OC [Compound 51, 1-methyl (2R,3S,4S,5R,6S)-4,5,6-tris(propanoyloxy)-2-[(propanoyloxy)methyl]oxan-3-yl (2E)-but-2-enedioate]	C (C: >75% of the tested compound remaining)	A (A: <25% of the tested compound remaining)	–
CCC(=O)OC[C@H]1O[C@H](OC(=O)CC)[C@H](OC(=O)CC)[C@@H](OC(=O)CC)[C@H]1OC(=O)/C=C/C(=O)OC [Compound 52, 1-methyl (2R,3S,4S,5R,6R)-4,5,6-tris(propanoyloxy)-2-[(propanoyloxy)methyl]oxan-3-yl (2E)-but-2-enedioate]	C (C: >75% of the tested compound remaining)	A (A: <25% of the tested compound remaining)	–
CC(=O)O [acetic acid]	–	–	Cell viability % DMSO ([3]; 1 mM): = (90% > <110%: =); Cell viability % DMSO ([3]; 3 mM): = (90% > <110%: =); activity at 1000 µM ([3]; Homo sapiens, 144 h, TGF-β, IL-2, 1 mM, read-out: Treg induction % DMSO): 110 to 130%; activity at 3000 µM [3, 4]: > 130%
CCCC(=O)O [butyric Acid]	–	–	Cell viability % DMSO ([3]; 3 mM): − (<90%: −); activity at 3000 µM [3, 4]: < 90%
CC[C@H]1[C@@H](O)[C@@H]2[C@H](CC[C@]3(C)[C@@H]([C@H](C)CCC(=O)O)CC[C@@H]23)[C@@]2(C)CC[C@@H](O)C[C@@H]12 [obeticholic acid, reference compound]	–	–	Cell viability % DMSO ([3]; 100 μM): = (90% > <110%: =); activity at 100 µM [3, 4]: 110 to 130%
CCC(=O)O [propionic acid]	–	–	Cell viability % DMSO ([3]; 3 mM): = (90% > <110%: =); activity at 3000 µM [3, 4]: > 130%
CN(CCOc1ccc(CC2SC(=O)NC2=O)cc1)c1ccccn1 (stereo not drawn) [rosiglitazone, reference compound]	–	–	Cell viability % DMSO ([3]; 10 μM): = (90% > <110%: =); Cell viability % DMSO ([3]; 100 μM): − (<90%: −); activity at 10 µM ([3]; Homo sapiens, 144 h, TGF-β, IL-2, 10 μM, read-out: Treg induction % DMSO): 90 to 110%; activity at 100 µM [3, 4]: 90 to 110%
CC(O)CC(=O)[O-].[Na+] (stereo not drawn) [sodium β-hydroxybutyrate]	–	–	Cell viability % DMSO ([3]; 2 mM): = (90% > <110%: =); Cell viability % DMSO ([3]; 20 mM): − (<90%: −); activity at 2000 µM ([3]; Homo sapiens, 144 h, TGF-β, IL-2, 2 mM, read-out: Treg induction % DMSO): 110 to 130%; activity at 20000 µM ([3]; Homo sapiens, 144 h, TGF-β, IL-2, 20 mM, read-out: Treg induction % DMSO): 90 to 110%
